Test results from ChEMBL document CHEMBL1201862, “PubChem BioAssay data set” (2004).
The source made the active and inactive calls.

Key:
[1] = biological target: T1, Streptokinase A (Streptococcus pyogenes serotype M1, UniProt P10520); assay: Absorbance Microorganism-Based Dose Response Follow up to Identify Inhibitors of Streptokinase Expression. [Related pubchem assays: 1677 (Project Summary), 1915, 1914, 1902 (Retest at Dose), 1900 (Counter Screen), 1662 (Primary HTS)]; format: functional, Streptococcus pyogenes M1 GAS
T1 sequence (P10520 whole entry): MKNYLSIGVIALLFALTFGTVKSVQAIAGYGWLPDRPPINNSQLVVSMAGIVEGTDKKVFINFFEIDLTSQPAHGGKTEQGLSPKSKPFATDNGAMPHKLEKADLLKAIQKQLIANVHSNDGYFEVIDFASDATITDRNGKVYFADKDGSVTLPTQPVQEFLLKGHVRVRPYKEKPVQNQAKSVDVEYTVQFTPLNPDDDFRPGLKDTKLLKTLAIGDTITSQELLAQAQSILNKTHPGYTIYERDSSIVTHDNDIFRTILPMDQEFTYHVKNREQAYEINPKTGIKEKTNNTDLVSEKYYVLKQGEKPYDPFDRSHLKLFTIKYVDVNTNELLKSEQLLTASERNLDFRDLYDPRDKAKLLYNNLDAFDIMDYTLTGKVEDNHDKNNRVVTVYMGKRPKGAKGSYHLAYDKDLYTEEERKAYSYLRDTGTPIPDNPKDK

[2] = test system: Streptococcus; assay: GAS bacterial viability reduction – luminescence, BacTiter-Glo, strain UMAA2166, counter-screen for streptokinase expression inhibitor project, dose response (AID 2477); format: functional, organism-based
[3] = test system: BJ; assay: BJ-TERT-LT-ST fibroblast viability loss – cell-based, RAS-independent, luminescence, dose response (AID 1935); format: functional; conditions: Homo sapiens;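 note: BJ fibroblasts immortalized with TERT plus LT and ST oncogenes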
[4] = test system: BJ; assay: cells; format: functional, cell-based; conditions: Homo sapiens
[5] = biological target: Nonstructural protein 1 (Influenza A virus, UniProt Q194T2); format: functional, Influenza A virus (A/California/07/2009(H1N1))
[6] = Vero E6 cell cytotoxicity, dose response, cytotoxicity control for non-replicating M. tuberculosis project, secondary assay (AID 492998); format: functional, VeroE6; conditions: Vero C1008
[7] = DRD fibroblast viability loss – cell-based, non-viral oncogenic, luminescence, dose response (AID 1934); format: functional; conditions: Homo sapiens
[8] = test system: INS1; assay: INS-1E survival protection against cytokine death – cell-based, luminescence, retest, dose response (AID 449756); format: functional; conditions: Rattus norvegicus;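 note: cell death triggered by IL-1 beta plus TNF-alpha plus IFN-gamma mixture; protective hits raise ATP signal compared with cytokine alone wells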
[9] = biological target: T2, Protein RecA (Mycobacterium tuberculosis, UniProt P9WHJ3); assay: Fluorescence Cell-Free Homogeneous Dose Retest to Identify Inhibitors of RecA-Intein Splicing Activity. [Related pubchem assays (depositor defined):AID2097, AID2223, AID489010, AID492950]; format: functional
T2 sequence (P9WHJ3 whole entry): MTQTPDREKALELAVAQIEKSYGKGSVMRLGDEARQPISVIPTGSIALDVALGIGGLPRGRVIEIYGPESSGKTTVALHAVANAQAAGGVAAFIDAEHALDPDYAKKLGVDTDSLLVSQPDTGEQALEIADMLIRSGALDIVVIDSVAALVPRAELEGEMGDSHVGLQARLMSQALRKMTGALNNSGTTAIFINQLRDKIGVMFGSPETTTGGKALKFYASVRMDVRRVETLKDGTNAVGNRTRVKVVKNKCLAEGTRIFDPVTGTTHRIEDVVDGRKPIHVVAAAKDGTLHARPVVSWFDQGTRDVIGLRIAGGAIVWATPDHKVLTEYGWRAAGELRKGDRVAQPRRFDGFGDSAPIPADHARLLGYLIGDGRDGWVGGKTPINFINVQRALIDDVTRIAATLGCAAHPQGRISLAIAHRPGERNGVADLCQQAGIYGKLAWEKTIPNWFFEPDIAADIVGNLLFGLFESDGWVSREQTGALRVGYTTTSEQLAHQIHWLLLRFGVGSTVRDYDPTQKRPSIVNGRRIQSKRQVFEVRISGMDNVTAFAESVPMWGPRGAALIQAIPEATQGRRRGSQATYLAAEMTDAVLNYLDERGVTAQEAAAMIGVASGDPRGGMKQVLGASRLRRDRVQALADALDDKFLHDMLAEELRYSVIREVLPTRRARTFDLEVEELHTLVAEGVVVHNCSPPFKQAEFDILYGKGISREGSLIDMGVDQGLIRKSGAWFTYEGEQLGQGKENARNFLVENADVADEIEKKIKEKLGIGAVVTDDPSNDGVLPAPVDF

[10] = Luminescence Cell-Based Dose Response HTS to Identify Activators of Luciferase Translation or Activity in H4 […] Cells. [Related pubchem assays: 1829 (Project Summary), 1814 (Primary HTS)]; format: functional
[11] = test system: BJ; assay: growth inhibition of engineered Ras-driven BJ cells – cell-based, alamar blue fluorescence, cherrypicked samples, dose response (AID 2631); format: functional; conditions: Homo sapiens;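 note: confirmatory dose-response assay in RAS-dependent BJ fibroblasts engineered with TERT, LT and ST, with cytotoxicity read by fluorescence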
[12] = test system: H4; assay: Luminescence Cell-Based Dose Response HTS to Identify Activators of 5'UTR Stem-Loop Driven Prion Protein mRNA Translation in H4 Neuroglioblastoma Cells. [Related pubchem assays: 1829 (Project Summary), 1814 (Primary HTS)]; format: functional; conditions: Homo sapiens
[13] = biological target: T3, Replicative DNA helicase DnaB (Mycobacterium tuberculosis, UniProt P9WMR3); assay: DnaB intein splicing inhibitors, dose response, biochemical, cell-free fluorescence (AID 449749); format: functional
T3 sequence (P9WMR3 whole entry): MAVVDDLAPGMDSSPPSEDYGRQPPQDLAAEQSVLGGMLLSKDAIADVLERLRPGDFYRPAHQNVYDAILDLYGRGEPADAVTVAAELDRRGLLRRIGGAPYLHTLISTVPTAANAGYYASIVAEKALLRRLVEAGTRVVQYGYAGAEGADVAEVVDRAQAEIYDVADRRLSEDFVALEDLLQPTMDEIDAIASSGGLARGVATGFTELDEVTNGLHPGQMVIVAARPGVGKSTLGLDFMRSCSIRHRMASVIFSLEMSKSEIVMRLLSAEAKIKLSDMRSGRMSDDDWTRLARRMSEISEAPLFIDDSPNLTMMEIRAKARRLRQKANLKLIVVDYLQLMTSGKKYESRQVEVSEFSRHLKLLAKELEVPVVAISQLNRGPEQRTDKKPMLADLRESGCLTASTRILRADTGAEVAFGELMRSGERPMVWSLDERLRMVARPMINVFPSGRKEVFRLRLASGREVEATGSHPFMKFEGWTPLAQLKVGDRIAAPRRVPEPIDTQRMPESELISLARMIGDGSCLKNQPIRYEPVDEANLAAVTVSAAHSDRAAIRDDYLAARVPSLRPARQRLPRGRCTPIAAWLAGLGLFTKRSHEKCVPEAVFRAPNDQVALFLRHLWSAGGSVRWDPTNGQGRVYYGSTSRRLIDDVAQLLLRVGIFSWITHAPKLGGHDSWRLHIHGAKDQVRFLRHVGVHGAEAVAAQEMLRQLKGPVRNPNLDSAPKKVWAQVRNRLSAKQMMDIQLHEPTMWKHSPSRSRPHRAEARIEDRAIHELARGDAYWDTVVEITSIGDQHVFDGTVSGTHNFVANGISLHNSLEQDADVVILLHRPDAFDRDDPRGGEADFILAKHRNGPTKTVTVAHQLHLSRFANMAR

[14] = biological target: T4, Sphingosine 1-phosphate receptor 2 (Homo sapiens, UniProt O95136); assay: Dose Response Cell Based Assay for Antagonists of the S1P2 Receptor. [Related pubchem assays: 856, 736 ]; format: functional
[15] = THP-1 cell cytotoxicity, dose response, cytotoxicity control for non-replicating M. tuberculosis project (AID 489025); format: functional
[16] = Luminescence Cell-Based Dose Confirmation HTS to Identify Activators of 5'UTR Stem-Loop Driven Alpha-Synuclein mRNA Translation in H4 Neuroglioblastoma Cells. [Related pubchem assays: 1829 (Project Summary), 1814 (Primary HTS)]; format: functional
[17] = biological target: T5, Mannose-6-phosphate isomerase (Homo sapiens, UniProt P34949); assay: MPI enzyme activity inhibition – biochemical, fluorescence intensity, coupled assay, primary screen (AID 1209)
T5 sequence (P34949 whole entry): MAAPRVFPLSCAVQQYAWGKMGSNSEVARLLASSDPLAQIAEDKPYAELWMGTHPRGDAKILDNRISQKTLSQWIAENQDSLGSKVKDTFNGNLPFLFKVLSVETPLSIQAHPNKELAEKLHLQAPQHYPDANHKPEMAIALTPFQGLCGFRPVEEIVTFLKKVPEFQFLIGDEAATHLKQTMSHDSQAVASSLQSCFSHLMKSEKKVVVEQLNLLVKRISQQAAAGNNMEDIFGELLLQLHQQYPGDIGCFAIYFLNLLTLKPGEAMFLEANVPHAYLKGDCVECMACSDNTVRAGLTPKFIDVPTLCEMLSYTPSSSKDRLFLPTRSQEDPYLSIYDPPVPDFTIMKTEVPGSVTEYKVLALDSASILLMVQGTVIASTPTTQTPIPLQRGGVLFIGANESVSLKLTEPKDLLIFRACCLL

[18] = test system: BJ; assay: BJ-TERT fibroblast viability loss – cell-based, RAS-independent, luminescence, dose response (AID 1933); format: functional; conditions: Homo sapiens
[19] = cells; format: functional
[20] = biological target: Genome polyprotein (dengue virus type 2, UniProt P29990); assay: flavivirus cap methylation enzyme inhibition – biochemical, confirmation dose response, primary screen (AID 588689); format: functional
[21] = biological target: T6, High affinity choline transporter 1 (Homo sapiens, UniProt Q9GZV3); assay: human choline transporter blockers, potency – cell-based, 5-point CRC, membrane potential dye, dose response (AID 504840); format: functional
T6 sequence (Q9GZV3 whole entry): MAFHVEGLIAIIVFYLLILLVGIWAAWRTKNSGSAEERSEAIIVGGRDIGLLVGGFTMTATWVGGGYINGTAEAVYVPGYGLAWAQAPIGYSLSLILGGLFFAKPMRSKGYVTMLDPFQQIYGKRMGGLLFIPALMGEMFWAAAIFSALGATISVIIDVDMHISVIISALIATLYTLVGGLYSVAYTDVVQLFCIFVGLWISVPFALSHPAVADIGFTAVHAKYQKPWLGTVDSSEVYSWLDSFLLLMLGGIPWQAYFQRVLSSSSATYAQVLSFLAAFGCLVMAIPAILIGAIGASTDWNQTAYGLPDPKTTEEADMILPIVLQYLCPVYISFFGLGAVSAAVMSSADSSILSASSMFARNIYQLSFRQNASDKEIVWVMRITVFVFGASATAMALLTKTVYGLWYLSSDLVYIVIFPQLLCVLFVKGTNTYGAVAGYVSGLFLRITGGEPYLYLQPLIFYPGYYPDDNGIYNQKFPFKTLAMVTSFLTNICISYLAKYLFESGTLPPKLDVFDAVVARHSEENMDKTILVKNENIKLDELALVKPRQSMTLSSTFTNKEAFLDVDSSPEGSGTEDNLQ

[22] = test system: Vero; assay: viability of Vero cells under compound – cytotoxicity control for flavivirus capping enzyme inhibitors (AID 588742); format: functional; conditions: Chlorocebus sabaeus
[23] = biological target: Potassium voltage-gated channel subfamily KQT member 2 (Rattus norvegicus, UniProt O88943, W236L); assay: potentiation of rat KCNQ2 current – cell-based, automated electrophysiology, mechanism study for KCNQ2 potentiator project, dose response (AID 2603); format: functional
[24] = non-specific 3'UTR reporter inhibition in Clone20-Shn3RL – cell-based, Renilla luciferase, cherry-picked, counter-screen for Shn3 inhibitor project, dose response (AID 624133); format: functional
[25] = biological target: Hepatocyte nuclear factor 4-alpha (Homo sapiens, UniProt P41235); format: functional, cell-based;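 note: biochemical luminescence-based dose-response counterscreen measuring inhibition of HNF4 dimerization, run alongside a screen for blockers of ABHD5–perilipin-5 interaction; split luciferase complementation of HNF4 fusion proteins in cell lysate measuring dimerization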
[26] = biological target: T6, High affinity choline transporter 1; assay: human choline transporter blockers, potency – cell-based, 10-point CRC, membrane potential dye, dose response (AID 588401); format: functional;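 note: membrane potential dye fluorescence of choline-evoked depolarization via CHT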
[27] = reduction of Shn3 3'UTR-driven luciferase in osteoblasts – cell-based, Clone20 osteoblasts, firefly luciferase, cherry-picked, dose response (AID 624132); format: functional;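 note: firefly luciferase luminescence from reporter carrying the Shn3 3'UTR in osteoblasts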
[28] = biological target: T4, Sphingosine 1-phosphate receptor 2; assay: Dose Response Cell Based Assay for Agonists of the S1P2 Receptor of Purchased Analogues. [Related pubchem assays: 729, 843, 854, 736 ]; format: functional

T4 sequence (O95136 whole entry): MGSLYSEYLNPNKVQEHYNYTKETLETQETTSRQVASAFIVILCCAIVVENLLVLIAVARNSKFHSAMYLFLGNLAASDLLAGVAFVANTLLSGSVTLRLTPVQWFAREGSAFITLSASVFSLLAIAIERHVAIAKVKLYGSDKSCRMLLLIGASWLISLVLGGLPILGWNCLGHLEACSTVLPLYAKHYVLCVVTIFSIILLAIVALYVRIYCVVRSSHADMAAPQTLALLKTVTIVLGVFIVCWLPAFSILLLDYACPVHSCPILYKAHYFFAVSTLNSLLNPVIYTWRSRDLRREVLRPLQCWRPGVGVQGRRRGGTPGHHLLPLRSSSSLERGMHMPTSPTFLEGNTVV
Chain of Potassium voltage-gated channel subfamily KQT member 2 (O88943 whole entry W236L): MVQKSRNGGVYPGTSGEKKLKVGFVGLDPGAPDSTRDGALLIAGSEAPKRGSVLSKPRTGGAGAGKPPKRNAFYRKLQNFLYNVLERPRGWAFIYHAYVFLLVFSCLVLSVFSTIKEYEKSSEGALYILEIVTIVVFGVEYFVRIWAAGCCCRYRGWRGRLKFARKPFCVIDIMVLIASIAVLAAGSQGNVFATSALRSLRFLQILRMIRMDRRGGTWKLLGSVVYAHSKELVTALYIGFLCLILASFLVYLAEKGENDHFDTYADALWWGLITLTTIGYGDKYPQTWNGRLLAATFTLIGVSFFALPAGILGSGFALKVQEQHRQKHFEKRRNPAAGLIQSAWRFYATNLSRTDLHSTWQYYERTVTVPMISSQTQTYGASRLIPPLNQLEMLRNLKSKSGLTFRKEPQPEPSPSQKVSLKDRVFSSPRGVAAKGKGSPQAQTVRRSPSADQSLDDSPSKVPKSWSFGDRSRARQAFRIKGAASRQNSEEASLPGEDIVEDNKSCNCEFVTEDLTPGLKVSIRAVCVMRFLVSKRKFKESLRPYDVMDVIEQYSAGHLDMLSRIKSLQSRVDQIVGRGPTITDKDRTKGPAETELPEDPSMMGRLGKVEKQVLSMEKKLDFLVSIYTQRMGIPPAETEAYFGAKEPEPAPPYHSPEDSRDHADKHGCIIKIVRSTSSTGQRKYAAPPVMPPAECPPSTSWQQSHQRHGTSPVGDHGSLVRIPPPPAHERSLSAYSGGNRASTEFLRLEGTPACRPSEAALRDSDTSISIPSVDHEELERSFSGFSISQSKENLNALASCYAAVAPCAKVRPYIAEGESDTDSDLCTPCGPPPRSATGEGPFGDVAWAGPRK
Chain of Hepatocyte nuclear factor 4-alpha (P41235 whole entry, the tested form may be a part): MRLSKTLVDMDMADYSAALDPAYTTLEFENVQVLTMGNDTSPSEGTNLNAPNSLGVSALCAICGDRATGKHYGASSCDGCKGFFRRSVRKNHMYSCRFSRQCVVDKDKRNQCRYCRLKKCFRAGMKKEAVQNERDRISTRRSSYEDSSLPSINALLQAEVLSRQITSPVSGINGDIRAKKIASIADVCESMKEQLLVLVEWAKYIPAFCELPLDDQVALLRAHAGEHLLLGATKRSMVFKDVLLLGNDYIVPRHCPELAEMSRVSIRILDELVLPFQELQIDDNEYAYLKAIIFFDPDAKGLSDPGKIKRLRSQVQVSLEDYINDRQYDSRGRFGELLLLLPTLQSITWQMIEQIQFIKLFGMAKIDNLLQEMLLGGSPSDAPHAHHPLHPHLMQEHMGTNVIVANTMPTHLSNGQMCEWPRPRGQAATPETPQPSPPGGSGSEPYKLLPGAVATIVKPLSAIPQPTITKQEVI
Chain of Genome polyprotein (P29990 2492-3391 limits assumed): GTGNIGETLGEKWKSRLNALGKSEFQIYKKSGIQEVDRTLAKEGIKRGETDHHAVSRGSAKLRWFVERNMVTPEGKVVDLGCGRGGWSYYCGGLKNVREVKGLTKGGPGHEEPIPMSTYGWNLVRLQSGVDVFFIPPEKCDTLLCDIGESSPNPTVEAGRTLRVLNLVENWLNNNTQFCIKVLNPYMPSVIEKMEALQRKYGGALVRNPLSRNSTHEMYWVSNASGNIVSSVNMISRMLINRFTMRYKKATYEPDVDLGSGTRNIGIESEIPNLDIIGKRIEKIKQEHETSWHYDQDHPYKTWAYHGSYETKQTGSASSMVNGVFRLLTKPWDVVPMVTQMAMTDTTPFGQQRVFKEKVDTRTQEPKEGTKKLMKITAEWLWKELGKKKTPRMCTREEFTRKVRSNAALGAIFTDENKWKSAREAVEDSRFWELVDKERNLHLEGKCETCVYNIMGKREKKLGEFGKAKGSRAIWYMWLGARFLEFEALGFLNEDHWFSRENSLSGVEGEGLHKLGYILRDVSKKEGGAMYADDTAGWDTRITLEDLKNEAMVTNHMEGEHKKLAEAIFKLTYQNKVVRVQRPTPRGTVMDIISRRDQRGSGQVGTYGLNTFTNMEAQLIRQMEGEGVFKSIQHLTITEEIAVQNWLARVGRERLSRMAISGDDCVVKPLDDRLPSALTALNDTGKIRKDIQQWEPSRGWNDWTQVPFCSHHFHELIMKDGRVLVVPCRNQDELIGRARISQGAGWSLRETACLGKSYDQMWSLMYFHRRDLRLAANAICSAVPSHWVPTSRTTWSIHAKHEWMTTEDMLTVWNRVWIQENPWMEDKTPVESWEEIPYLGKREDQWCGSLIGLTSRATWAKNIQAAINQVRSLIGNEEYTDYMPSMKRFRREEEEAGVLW
Chain of Nonstructural protein 1 (Q194T2 whole entry): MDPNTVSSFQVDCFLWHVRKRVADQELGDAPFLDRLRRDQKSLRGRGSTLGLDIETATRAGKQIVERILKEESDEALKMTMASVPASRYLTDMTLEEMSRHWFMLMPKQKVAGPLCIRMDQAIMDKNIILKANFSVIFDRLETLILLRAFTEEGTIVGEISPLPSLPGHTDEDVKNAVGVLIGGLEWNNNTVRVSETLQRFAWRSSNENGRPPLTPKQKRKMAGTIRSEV

For `COc1cccc(-c2nc(OC(C)C)c3ccccc3n2)c1`, the EC50 [1] was 8.2 µM (active) and the EC50 [2] was 68.7 µM (active).

In the case of `CC1=C(C)/C(=N\OS(=O)(=O)c2ccccc2)C=CC1=O`, the EC50 [3] is reported as 4.32 µM (inconclusive), the EC50 [4] is reported as 2.92 µM (active) and the IC50 [5] is reported as > 100 µM (active). The CC50 [6] was > 20 µM (active), the EC50 [7] was 4.57 µM (active) and the AC50 [8] was 1.92 µM (active). The EC50 [9] was 7.72 µM (active), the EC50 [10] was > 120 µM (not active) and the EC50 [11] was 0.557 µM (inconclusive). For the same molecule, the EC50 [12] was > 120 µM (not active), the AC50 [13] was 87.4 µM (active) and the IC50 [14] was 4.33 µM (active). For the same molecule, the CC50 [15] was 12.1 µM (active), the EC50 [16] was > 120 µM (not active) and the IC50 [17] was 6.61 µM (active). The EC50 [18] was 2.78 µM (inconclusive) and the IC50 [19] was 11.4 µM (active).

For `CCc1nnc(NC(=O)c2nc(S(=O)(=O)Cc3cccc(C)c3)ncc2Cl)s1`, the IC50 [20] was > 100 µM (active), the IC50 [21] was 2.4 µM (active) and the EC50 [9] was 4.37 µM (active). For the same molecule, the CC50 [22] was 26.6 µM (active), the EC50 [10] was > 120 µM (not active) and the EC50 [12] was > 120 µM (not active). For the same molecule, the AC50 [13] was 5.05 µM (active), the EC50 [23] was 16.8 µM (active) and the AC50 [24] was 6.99 µM (active). For the same molecule, the IC50 [25] was 5.05 µM (active), the IC50 [26] was 2.82 µM (active) and the EC50 [16] was > 120 µM (not active). For the same molecule, the AC50 [27] was 2.51 µM (active).

For `Cc1cc(C(=O)CN(C)CC(=O)N(C)C)c(C)n1Cc1ccccc1`, the EC50 [28] was > 30 µM (not active).
